Assay results: article PMC6520840, “Antimicrobial and Antibiofilm Effects of Peptides from Venom of Social Wasp and Scorpion on Multidrug-Resistant Acinetobacter baumannii” (Toxins, 2019)
No end group written: not given here.

What was measured:
[1] = test system: A. baumannii isolate AB 02; settings: cited from earlier work
Description: (§1) In this work, three A. baumannii isolates previously described by Castilho et al. that were isolated from patients with hospital-acquired infections were used. Isolates AB 02 and AB 72 were resistant to ampicillin, amikacin, and ciprofloxacin. AB 53 isolate only presented resistance to ampicillin. […] Thus, AB 02 and AB 72 were considered as MDR strains. The ability to form biofilms by A. baumannii isolates AB 02, AB 53 and AB 72 was determined by crystal violet staining ...

[2] = test system: A. baumannii isolate AB 72; settings: cited from earlier work
Description: as §1

[3] = test system: A. baumannii isolate AB 53; settings: cited from earlier work
Description: as §1

[4] = test system: A. baumannii isolate AB 02 biofilm; test: Inhibition of biofilm formation on polystyrene plates (MBEC), crystal violet; assay type: cell-based, Acinetobacter baumannii; settings: for Minimal inhibitory concentration against the formation of A. baumannii biofilm (MBEC): Isolate AB 02, polystyrene plate, LB 1/4 + 0.2% glucose, 29 °C, 24 h, crystal violet, OD 595 nm, peptides 25 to 1.56 μM
Description: […] [71] methodology with minor modifications. Initially, A. baumannii strains (AB 02, AB 53, and AB 72) were grown for 6 h in LB broth until reaching an optimum growth of 1.0 in the optical density of 600 nm and then the culture concentration was adjusted to 1.5 × 10^8 CFU/mL and 30 μL of the culture was added to the wells containing 170 μL de LB ¼ + 0.2% glucose containing serially diluted peptides ranging from 25 to 1.56 μM. Cells were incubated at 29 °C for 24 h to let biofilms be formed. The supernatant was removed and the wells were washed with 200 μL of PBS twice to remove the non-adherent and weakly adherent cells, maintaining only the mature biofilm formed on the plate. Biofilm quantification was measured by staining attached cells with 0.2% (w/v) violet crystal staining solubilized with ethanol/acetone (80/20 v/v) and quantified at 595 nm. The biofilms formed in cultures with different peptide concentrations were compared with the biofilms formed in cultures of A. baumannii strains without peptides. Analyses were performed in triplicate and three independent experiments were performed for each of these assays.

[5] = test system: A. baumannii isolate AB 53 biofilm; test: as above; assay type: cell-based, Acinetobacter baumannii; settings: for Minimal inhibitory concentration against the formation of A. baumannii biofilm (MBEC): Isolate AB 53, polystyrene plate, LB 1/4 + 0.2% glucose, 29 °C, 24 h, crystal violet, OD 595 nm, peptides 25 to 1.56 μM
Description: (§2) In order to determine if individual peptides could avoid biofilm formation, the minimal biofilm eradication concentration (MBEC) determination assay was performed using 96-well […] plates according to Feng et al. methodology with minor modifications. Initially, A. baumannii strains (AB 02, AB 53, and AB 72) were grown for 6 h in LB broth until reaching an optimum growth of 1.0 in the optical density of 600 nm and then the culture concentration was adjusted to 1.5 × 10^8 CFU/mL and 30 μL of the culture was added to the wells containing 170 μL de LB ¼ + 0.2% glucose containing serially diluted peptides ranging from 25 to 1.56 μM. Cells were incubated at 29 °C for 24 h to let biofilms be formed. The supernatant was removed and the wells were washed with 200 μL of PBS twice to remove the non-adherent and weakly adherent cells, maintaining only the mature biofilm formed on the plate. Biofilm quantification was measured by staining attached cells with 0.2% (w/v) violet crystal staining solubilized with ethanol/acetone (80/20 v/v) and quantified at 595 nm. The biofilms formed in cultures with different peptide concentrations were compared with the biofilms formed in cultures of A. baumannii strains without peptides. Analyses were performed in triplicate and three independent experiments were performed for each of these assays.

[6] = test system: A. baumannii isolate AB 72 biofilm; test: as above; assay type: cell-based, Acinetobacter baumannii; settings: for Minimal inhibitory concentration against the formation of A. baumannii biofilm (MBEC): Isolate AB 72, polystyrene plate, LB 1/4 + 0.2% glucose, 29 °C, 24 h, crystal violet, OD 595 nm, peptides 25 to 1.56 μM
Description: as §2

[7] = test system: A. baumannii isolate AB 02; test: Minimum inhibitory concentration (MIC), broth microdilution; assay type: cell-based, Acinetobacter baumannii; settings: peptides 25 to 1.56 μM, 24 h at 37 °C, OD 405 nm, triplicates
Description: (§3) The minimum inhibitory concentration was determined by broth microdilution according to Wiegand et al.. The AB 02, […] and AB 72 isolates were grown in LB broth medium for 8 h at 37 °C until they reached a growth turbidity corresponding to 0.5 of the McFarland scale. Thirty microliters of each culture were added in the wells of polystyrene plates containing 170 µL of culture medium with different concentrations of the antimicrobial peptides. Agelaia-MPI, Polybia-MPII, Polydim-I, Con10 and NDBP 5.8 antimicrobial peptides were serially diluted from 25 to 1.56 μM. The plate containing different concentrations of individual peptides with the bacterial strains were incubated for 24 h at 37 °C, after which time the plates were read at the optical density of 405 nm. As positive control, bacterial strains without peptides were grown in the same conditions, and as negative control medium alone was used.

[8] = test system: A. baumannii isolate AB 72; test: as above; assay type: cell-based, Acinetobacter baumannii; settings: peptides 25 to 1.56 μM, 24 h at 37 °C, OD 405 nm, triplicates
Description: as §3

[9] = test system: A. baumannii isolate AB 53; test: as above; assay type: cell-based, Acinetobacter baumannii; settings: peptides 25 to 1.56 μM, 24 h at 37 °C, OD 405 nm, triplicates
S. epidermidis biofilm = assay type: cell-based, Staphylococcus epidermidis; settings: peptide at 12.5 μM, crystal violet
Description: (§4) To determine the formation of the biofilm of Staphylococcus spp., the methodology according to Kwasny and Opperman (2010) with modifications was used. Staphylococcus epidermidis and methicillin-resistant Staphylococcus aureus (MRSA) cryopreserved strains at −80 °C were reactivated in solid medium to obtain an isolated colony, which was inoculated in LB medium broth and cultured at 37 °C until they reached a concentration corresponding to 0.5 turbidity of the MacFarland scale. At that concentration, 30 μL of the bacterial culture was added to wells containing 170 μL of tryptic soy broth (HiMedia) broth with 1% glucose. The plate was incubated at 37 °C for 24 h. After this period the bacterial growth was quantified by optical density reading at 600 nm and the formation of the biofilm was determined by the colorimetric method similar to that used for Acinetobacter. The biofilm inhibition test also followed the standard for the previous tests, with modifications in the culture medium used to increase the bacterial biofilm production by Staphylococcus strains.

[10] = test system: methicillin-resistant S. aureus (MRSA) biofilm; assay type: cell-based, Staphylococcus aureus; settings: peptide at 12.5 μM, crystal violet
Description: as §4

Compound	Antibiotic susceptibility category [1]	Antibiotic susceptibility category [2]	Antibiotic susceptibility category [3]	Minimal inhibitory concentration against the formation of A. baumannii biofilm (MBEC) [4]	Minimal inhibitory concentration against the formation of A. baumannii biofilm (MBEC) [5]	Minimal inhibitory concentration against the formation of A. baumannii biofilm (MBEC) [6]	MIC [7]	MIC [8]	MIC [9]	further results
NCC[C@H](O)C(=O)N[C@@H]1C[C@H](N)[C@@H](O[C@H]2O[C@H](CN)[C@@H](O)[C@H](O)[C@H]2O)[C@H](O)[C@H]1O[C@H]1O[C@H](CO)[C@@H](O)[C@H](N)[C@H]1O [amikacin]	resistant	resistant								
CC1(C)S[C@@H]2[C@H](NC(=O)[C@H](N)c3ccccc3)C(=O)N2[C@H]1C(=O)O [ampicillin]	resistant	resistant	resistance							
O=C(O)c1cn(C2CC2)c2cc(N3CCNCC3)c(F)cc2c1=O [ciprofloxacin]	resistant	resistant								
C[C@@H](O)[C@H]1C(=O)N2C(C(=O)O)=C(S[C@@H]3CN[C@H](C(=O)N(C)C)C3)[C@H](C)[C@H]12 [meropenem]		susceptible	susceptible							
CN(C)[C@@H]1C(O)=C(C(N)=O)C(=O)[C@@]2(O)C(O)=C3C(=O)c4c(O)cccc4[C@@](C)(O)[C@H]3C[C@@H]12 [tetracycline]	intermediate susceptibility	intermediate susceptibility	intermediate susceptibility							
AVAGEKLWLLPHLLKMLLTPTP-NH2 [Polydim-I]				>25 µM	>25 µM	>25 µM				
FWSFLVKAASKILPSLIGGGDDNKSSS-NH2 [Con10]				25 µM	12.5 µM	12.5 µM	12.5 µM	6.25 µM	6.25 µM	
GILGKIWEGVKSLI-NH2 [NDBP-5.8]				>25 µM	>25 µM	>25 µM	25 µM	25 µM	25 µM	Minimal inhibitory concentration against the formation of A. baumannii biofilm (MBEC) ([4]; listed as NBDP 5.8): 25 µM; Inhibition of the biofilm ([4]; isolate AB 02, peptide at 25 μM): > 95%; Minimal inhibitory concentration against the formation of A. baumannii biofilm (MBEC) ([5]; listed as NBDP 5.8): 25 µM; Inhibition of the biofilm ([5]; isolate AB 53, peptide at 25 μM): > 95%; Minimal inhibitory concentration against the formation of A. baumannii biofilm (MBEC) ([6]; listed as NBDP 5.8): 25 µM; Inhibition of the biofilm ([6]; isolate AB 72, peptide at 25 μM): > 95%
INWLKLGKAIIDAL-NH2 [Agelaia-MPI]				25 µM	6.25 µM	12.5 µM	6.25 µM		3.12 µM	Inhibition of biofilm formation (S. epidermidis biofilm): 85%; Inhibition of biofilm formation [10]: 85%
INWLKLGKMVIDAL-NH2 [Polybia-MPII]				25 µM	12.5 µM	25 µM	12.5 µM	6.25 µM	6.25 µM	Inhibition of biofilm formation (S. epidermidis biofilm): 85%; Inhibition of biofilm formation [10]: 85%
